Data: publication PMC11117252, “The MraY Inhibitor Muraymycin D2 and Its Derivatives Induce Enlarged Cells in Obligate Intracellular Chlamydia and Wolbachia and Break the Persistence Phenotype in Chlamydia” (Antibiotics, 2024)
≈ marks a conversion by molar mass, not a printed value. Read-outs that look alike come from different tables or passages of the source.

Columns and labels:
[1] = test system: C. trachomatis serovar D; conditions: C. trachomatis serovar D in cell culture; cited from earlier work
Method: The tested compounds were applied to C. trachomatis-infected cells at an early stage of the chlamydial developmental cycle (Figure 1a), before the bacteria started replicating. During the early treatment with MRY D2, the majority of muraymycin derivatives and cCPZ had MICs between 16 µg/mL for cCPZ and 128 µg/mL for MRY D2 (Figure 1d). These MICs were relatively high compared with the MICs of the first-choice antibiotics against uncomplicated chlamydial genital infections, DOX and AZI, which have MICs of <1 µg/mL against C. trachomatis serovar D in cell culture. All der ...

[2] = test system: C. trachomatis D/UW-3/CX; assay: Anti-chlamydial activity (MIC) in C. trachomatis-infected HEp-2 cells, fluorescence microscopy; assay type: cell-based; conditions: for Effect on C. trachomatis infection (phenotype): added at 2 hpi, read at 30 hpi, HEp-2 cells; for MIC: C. trachomatis D/UW-3/CX-infected HEp-2 cells, compound added at 2 hpi, fluorescence microscopy at 30 hpi, MIC = lowest concentration with >90% reduction in inclusions or inducing enlarged aberrant cells, three experiments
Method: First, we tested the lead compound MRY D2 (Figure 1a) and seven muraymycin derivatives (MRH; described in [47, 48]) on C. trachomatis in cell culture experiments. To this end, C. trachomatis D/UW-3/CX-infected HEp-2 cells were treated with the compounds at 2 h post infection (hpi; Figure 1b), which represents an early stage of the chlamydial developmental cycle before bacterial replication. Inhibitors were applied over a range of concentrations that were not detrimental to HEp-2 host cells in resazurin-based viability assays (Table S1), and the effects were visualized by fluorescence microscopy (Figure 1c and Figure S2) at 30 hpi. The minimal inhibitory concentration (MIC) for Chlamydia was defined as either the lowest concentration leading to a >90% reduction in inclusions or, for aberrance-inducing compounds, the concentration leading to abnormal chlamydial cell phenotypes, i.e., enlarged cells after treatment with PEN G [39].
(§1) The effect of the compounds on active C. trachomatis infections was analyzed by fluorescence microscopy. […] The cells were washed once with medium and infected with freshly prepared C. trachomatis D/UW-3/CX EB-containing suspension. After 2 h incubation, the EB suspension was aspirated, and the cells were washed twice with medium. The effect of compounds on an infection was determined by application of the compound at 2 hpi or 12 hpi in a serial dilution from 1 µg/mL to 64 µg/mL (MRH-25, -76, -92, cCPZ) or from 1 µg/mL to 128 µg/mL (MRY D2, MRH-22, -23, -38, and -82). Negative controls were conducted with DMSO as a vehicle control. For Chlamydia, the MIC is defined as a >90% reduction in inclusions. The MIC of compounds inducing the formation of enlarged, aberrant bodies is the lowest concentration that induces the abnormal inclusion morphology.
(§2) Infected HEp-2 cells were fixed and permeabilized with 100% (v/v) ice-cold methanol at 30 hpi and washed once with 1 × phosphate-buffered saline (PBS, 4 mM KH2PO4 pH 7.4, 16 mM Na2HPO4, 115 mM NaCl). The Pathfinder Chlamydia Culture Confirmation System (Bio-Rad Laboratories, Hercules, CA) was used to stain the C. trachomatis lipopolysaccharide and host cell cytoplasm by incubation for 30 min at 37 °C. Genomic DNA was stained with 10 µg/mL DAPI (Thermo Fisher Scientific) for 1 min and then washed twice with PBS for 10 min at 4 °C. Fluorescence microscopy was performed with an Axio observer Z.1 using the Zen2 software (Carl Zeiss, Oberkochen, Germany).

[3] = test system: Wolbachia strain B of A. albopictus; assay: Quantification (depletion) of Wolbachia by qPCR, 16S rDNA/actin B ratio; assay type: cell-based, Wolbachia strain B of Aedes albopictus; conditions: 4 µg/mL, 9 days, C6/36 cells, positive control
Method: (a) A. albopictus C6/36 cells infected with Wolbachia strain B of A. albopictus were cultured for 9 days with or without the compounds at varying concentrations. […] (c) The depletion of Wolbachia from infected and treated C6/36 cells was measured after 9 days by extracting genomic DNA and measuring the ratio of Wolbachia 16S rDNA and A. albopictus actin B by qPCR; the median ± interquartile range from three experiments is shown.
Susceptibility of Wolbachia toward different compounds was tested as described [32, 53]. In short, 1 × 10^4 cells/well of A. albopictus C6/36 infected with Wolbachia were cultured in supplemented medium in 96-well plates with or without compound at 26 °C for 9 days. The medium, with and without compound, was exchanged every third day, and the cells were harvested on day 9 for the extraction of genomic DNA using the QIAamp Kit (Qiagen, Hilden, Germany) according to the manufacturer’s protocol. Wolbachia were quantified by qPCR of the 16S rDNA gene of Wolbachia (GenBank accession No. X61767) and the actin B gene of A. albopictus (GenBank accession no. DQ657949) as described [32, 91]. A plasmid containing the appropriate insert was used to generate a standard curve to determine the copy number of the genes. The abundance of Wolbachia was normalized by calculating the ratio of 16S rDNA copies/µL to actin B copies/µL.

[4] = test system: C. trachomatis D/UW-3/CX; assay: Effect of MRY D2 on active (mid-stage) and penicillin G-induced persistent C. trachomatis infections, inclusion counts; assay type: cell-based; conditions: read at 30 hpi
Method: Figure 6 Effect of MRY D2 on PEN G-induced persistent C. trachomatis infections. (a) HEp-2 cells infected with C. trachomatis D/UW-3/CX were treated with 128 µg/mL MRY D2 at 2 hpi or 12 hpi to analyze the effect on active infection. Additionally, 128 µg/mL MRY D2 and 100 U/mL PEN G were added simultaneously at 2 hpi. To assess the effect on a PEN G-induced persistent infection, 100 U/mL PEN G was added at 2 hpi, and 128 µg/mL MRY D2 was added at 12 hpi. Anti-chlamydial activity was analyzed at 30 hpi by fluorescence microscopy. (b) Eukaryotic host cell cytoplasm from representative images was labelled with Evans Blue (red), genomic DNA with DAPI (blue), and chlamydial lipopolysaccharide with fluorescein (green). Scale bar: 10 µm. (c) Mean ± SD of inclusions/field and (d) the relative number of inclusions filled with either elementary bodies (EBs)/reticulate bodies (RBs), ABs, or a mixed phenotype, analyzed from three images. An unpaired, two-tailed Student’s t-test was performed against the respective vehicle control. ns: not significant, p > 0.05; *: p = 0.05 to 0.01; **: p = 0.01 to 0.001; ****: p < 0.0001. In comparison with the DMSO vehicle control, the addition of PEN G at 2 hpi induced persistence, characterized by aberrant bodies. Early application of MRY D2 at 2 hpi (p < 0.0001) and simultaneous application with PEN G at 2 hpi induced the formation of ABs. […] This was also visible if persistence was induced by PEN G at 2 hpi followed by MRY D2 addition at 12 hpi (p = 0.0037).
as §1
The effect of MRY D2 on penicillin-induced persistent C. trachomatis infections was analyzed as described for the active infection, with the following modifications. After removal of the EB-containing lysate at 2 hpi and washing of the cells, 100 U/mL PEN G was added to induce a persistent infection. MRY D2 was added at 12 hpi in a concentration range of 128 µg/mL to 1 µg/mL by serial dilution. In another approach, MRY D2 was applied simultaneously with PEN G at 2 hpi to determine if early administration influences the establishment of a persistent infection.
as §2, with “Genomic DNA was stained with 10 µg/mL DAPI (Thermo Fisher Scientific) for 1 min and then washed twice with PBS for 10 min at 4 °C.” left out
Inclusions were quantified using CellProfiler 4.0.6. […]

[5] = test system: C. pneumoniae MraY; assay: Inhibition of C. pneumoniae MraY in vitro (lipid I formation, TLC); assay type: biochemical; conditions: 0.5 µM compound (range tested 0.05-0.5 µM), 2 µg MraYCpn, C55-P, UDP-MurNAc-pentapeptide, 90 min, duplicate
Description: (a) C. pneumoniae and Wolbachia spp. MraY use the precursor molecules undecaprenyl-phosphate (C55-P) and uridine diphosphate (UDP)-N-acetylmuramoyl(MurNAc)-pentapeptide to form lipid I, which is glycosylated with N-acetylglucosamine (GlcNAc) by MurG, yielding lipid II. IM: inner membrane; UMP: uridine monophosphate; mDAP: meso-diaminopimelic acid; C55-P: undecaprenyl-phosphate. […] Reaction products were extracted, separated via thin-layer chromatography, and stained. Formation of lipid I by MraYCpn was inhibited by both tested inhibitors.
C. pneumoniae MraY was heterologously overexpressed in E. coli, purified via His-tag affinity chromatography, and inhibition of the enzymatic activity was analyzed by visualizing the reaction products via thin-layer chromatography.
Inhibition assays with MraYCpn and the compounds were performed based on the activity assays for MraYCpn as previously described, with minor modifications, in a final volume of 50 µL. First, 2.5 nmol C55-P (Larodan, Solna, Sweden) was dissolved in 0.43% (v/v) Triton X-100 by vortexing for 1 min. Then, 75 mM Tris-HCl (pH 7.5), 6 mM MgCl2, 10% (v/v) DMSO, and UDP-MurNAc-pentapeptide obtained from Bacillus cereus DSM2302 (based on) were added. Compounds were applied at the indicated concentrations and incubated with 2 µg MraYCpn at 30 °C for 90 min. […]

[6] = test system: HEp-2 cells; assay: Cytotoxicity toward HEp-2 cells, resazurin-based alamarBlue viability assay; conditions: 28 h incubation, normalized to DMSO, non-linear regression from mean of two independent experiments, highest concentration tested 128 µg/mL
Method: (§3) Cytotoxicity of the compounds toward HEp-2 cells was assessed using the resazurin-based alamarBlue cell viability reagent (Thermo Fisher Scientific, Waltham, MA, USA). 5 × 10^4 HEp-2 cells/mL were seeded into flat base TC-96-well plates (Sarstedt, Nümbrecht, Germany) and incubated at 37 °C and 5% (v/v) CO2. After 48 h, the cells were washed with medium, followed by the addition of compounds in a serial dilution ranging from 128 µg/mL to 1 µg/mL for another 28 h. Next, the cells were washed twice with Hank’s balanced salt solution (HBSS) and incubated with the alamarBlue cell viability reagent diluted 1:10 in HBSS for 1 h. The conversion of resazurin into resorufin by viable cells was determined by transferring the supernatant into black 96-well plates (Greiner Bio-One, Frickenhausen, Germany) and measuring the fluorescence at 550 nm excitation and 595 nm emission wavelengths using a Tecan infinite M200 plate reader and Tecan SparkControl software v3.2 (Tecan Group, Männedorf, Switzerland). HEp-2 cell viability was normalized to the vehicle control, and the cytotoxic concentration 50% (CC50) was calculated by non-linear regression using GraphPad Prism v10.1.2 (GraphPad Software, San Diego, CA, USA).

[7] = test system: HEp-2 cells
Method: as §3

[8] = 128 µg/mL MRY D2 alone added at 12 hpi

## CC[C@H]1OC(=O)[C@H](C)[C@@H](O[C@H]2C[C@@](C)(OC)[C@@H](O)[C@H](C)O2)[C@H](C)[C@@H](O[C@@H]2O[C@H](C)C[C@H](N(C)C)[C@H]2O)[C@](C)(O)C[C@@H](C)CN(C)[C@H](C)[C@@H](O)[C@]1(C)O [AZI, azithromycin]
[1]
  MIC: < 1 µg/mL

## O=C(O)c1cn(C2CC2)c2cc(N3CCNCC3)c(F)cc2c1=O [CIP, ciprofloxacin, reference compound]
[2]; 0.5 µg/mL
  Effect on C. trachomatis infection (phenotype): bactericidal

## C[C@H]1c2cccc(O)c2C(=O)C2=C(O)[C@]3(O)C(=O)C(C(N)=O)=C(O)[C@@H](N(C)C)[C@@H]3[C@@H](O)[C@@H]21 [DOX, doxycycline]
[3]
  Depletion of Wolbachia (16S rDNA/actin B by qPCR): nearly completely depleted
[1]
  MIC: < 1 µg/mL

## CC(C)C[C@H](NC(=O)[C@@H](NC(=O)N[C@H](C(=O)O)C(C)C)[C@@H]1CCN=C(N)N1)C(=O)NCCCN[C@H](C(=O)O)[C@H](O[C@@H]1O[C@H](CN)[C@@H](O)[C@H]1O)[C@H]1O[C@@H](n2ccc(=O)[nH]c2=O)[C@H](O)[C@@H]1O [MRY D2, Muraymycin D2]
[4]; [8]
  Relative number of inclusions containing EBs/RBs: 83%
  Relative number of inclusions containing a mixed phenotype (EBs/RBs/ABs): 8%
[4]; 128 µg/mL MRY D2 and 100 U/mL PEN G added simultaneously at 2 hpi
  Phenotype on simultaneous treatment with PEN G: inclusions filled with ABs were visible as for PEN G alone
[4]; active infection: 128 µg/mL MRY D2 alone added at 12 hpi
  Fewer inclusions (reduction in inclusion number): 75%
[4]; established persistent infection: 100 U/mL PEN G at 2 hpi, then 128 µg/mL MRY D2 at 12 hpi, vs PEN G only
  Reduction of the inclusion quantity: 70%
[5]
  Inhibition of lipid I formation by recombinant MraYCpn: completely abolished enzymatic activity
[6]
  CC50: > 128 µg/mL
[2]
  MIC: 128 µg/mL (≈ 140 µM)

## CC1(C)S[C@@H]2[C@H](NC(=O)Cc3ccccc3)C(=O)N2[C@H]1C(=O)O [PEN, penicillin, reference compound]
[2]; 100 U/mL
  Effect on C. trachomatis infection (phenotype): induced persistence visible as enlarged, aberrant bodies

## CCCCCCCCCCCCCCCCC[C@H]1CN(C)[C@@H]([C@H](O[C@@H]2O[C@H](CN)[C@@H](O)[C@H]2O)[C@H]2O[C@@H](n3ccc(=O)[nH]c3=O)[C@H](O)[C@@H]2O)C(=O)N(C)[C@@H]1C(=O)O [cCPZ, carbacaprazamycin]
[2]
  MIC: 16 µg/mL (≈ 20.1 µM)
[7]
  CC50: 124 µg/mL (≈ 155 µM)
